Patent US9481648B2, “Kinase inhibitors” (Respivert Limited, priority 2013, dated 2016)

Target: GSK 3α (Homo sapiens (Human), UniProt P49840)
Experiment: GSK 3α enzyme inhibition (FRET, Z-LYTE; Method 2)
Type: biochemical
Settings: read-out: IC50 Values for Enzyme Inhibition GSK3α
Method: The enzyme inhibitory activities of compounds disclosed herein are determined by FRET using synthetic peptides labelled with both donor and acceptor fluorophores (Z-LYTE, Invitrogen Ltd., Paisley, UK).
The inhibitory activities of compounds of the invention against the GSK 3α enzyme isoform (Invitrogen), are evaluated by determining the level of activation I phosphorylation of the target peptide. The GSK3-α protein (500 ng/mL, 2.5 μL) is mixed with the test compound (2.5 μL at either 4 μg/mL, 0.4 μg/mL, 0.04 μg/mL, or 0.004 μg/mL) for 2 hr at RT. The FRET peptide (8 μM, 2.5 μL), which is a phosphorylation target for GSK3α, and ATP (40 μM, 2.5 μL) are then added to the enzyme\compound mixture and the resulting mixture incubated for 1 hr. Development reagent (protease, 5 μL) is added for 1 hr prior to detection in a fluorescence microplate reader (Varioskan® Flash, ThermoFisher Scientific).
In all cases, the site-specific protease cleaves non-phosphorylated peptide only and eliminates the FRET signal. Phosphorylation levels of each reaction are calculated using the ratio of coumarin emission (donor) over fluorescein emission (acceptor), for which high ratios indicate high phosphorylation and low ratios indicate low phosphorylation levels.
This method follows the same steps as Method 1 above, but utilises a shorter period of mixing of the test compound (105 minutes instead of 2 hours) with the GSK3-α protein. In addition, the concentrations of test compound employed are either 10 μg/mL, 1 μg/mL, 0.1 μg/mL, or 0.01 μg/mL

Sequence of GSK 3α (P49840 whole entry): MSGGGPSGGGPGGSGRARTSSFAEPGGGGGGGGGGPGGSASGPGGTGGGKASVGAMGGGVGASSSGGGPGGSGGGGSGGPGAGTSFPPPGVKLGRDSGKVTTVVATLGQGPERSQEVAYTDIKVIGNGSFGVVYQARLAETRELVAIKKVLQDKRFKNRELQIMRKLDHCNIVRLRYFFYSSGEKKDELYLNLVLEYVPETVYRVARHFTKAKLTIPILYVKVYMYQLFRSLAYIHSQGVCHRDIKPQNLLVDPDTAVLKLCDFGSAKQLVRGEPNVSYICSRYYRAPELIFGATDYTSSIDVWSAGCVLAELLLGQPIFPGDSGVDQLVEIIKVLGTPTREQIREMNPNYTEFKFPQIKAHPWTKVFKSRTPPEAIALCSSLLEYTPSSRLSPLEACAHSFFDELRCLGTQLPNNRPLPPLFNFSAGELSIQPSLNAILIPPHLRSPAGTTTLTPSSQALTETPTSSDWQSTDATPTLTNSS

| IC50 [µM] | Compound |
| --- | --- |
| 13.8 | COc1cc(Nc2nccc(Oc3ccc(NC(=O)Nc4cc(C(C)(C)C)cc(NS(C)(=O)=O)c4OC)c4ccccc34)n2)cc(C(=O)C2CC2)c1 [Example 50, N-(5-(tert-Butyl)-3-(3-(4-((2-((3-(cyclopropanecarbonyl)-5-methoxyphenyl)amino)-pyrimidin-4-yl)oxy)naphthalen-1-yl)ureido)-2-methoxyphenyl)methanesulfonamide] |
| 1.02 | COc1cc(Nc2cc(Oc3ccc(NC(=O)Nc4cc(C(C)(C)C)cc(NS(C)(=O)=O)c4OC)c4ccccc34)ccn2)cc(C(=O)NCCN2CCCC2)c1 [83(d), 3-((4-((4-(3-(5-(tert-butyl)-2-methoxy-3-(methysulfonamido)phenyl)ureido)naphthalen-1-yl)oxy)pyridin-2-yl)amino)-5-methoxy-N-(2-(pyrrolidin-1-yl)ethyl)benzamide] |
| 11.3 | COCCOCCOCCOc1cc(Nc2nccc(Oc3ccc(NC(=O)Nc4cc(C(C)(C)C)cc(NS(=O)(=O)C5CCCCC5)c4OC)c4ccccc34)n2)cc(OC)c1 [Example 72, N-(5-(tert-Butyl)-2-methoxy-3-(3-(4-((2-((3-methoxy-5-(2-(2-(2-methoxyethoxy)ethoxy)-ethoxy)phenyl)amino)pyrimidin-4-yl)oxy)naphthalen-1-yl)ureido)phenyl)cyclohexane-sulfonamide] |
| 14.4 | COc1c(NC(=O)Nc2ccc(Oc3ccnc(Nc4ccccc4)c3)c3ccccc23)cc(C(C)(C)C)cc1NS(=O)(=O)N1CCOCC1 [83(f), N-(5-(tert-butyl)-2-methoxy-3-(3-(4-((2-(phenylamino)pyridin-4-yl)oxy)naphthalen-1-yl)ureido)phenyl)morpholine-4-sulfonamide] |
| 0.3 | COc1cc(Nc2nccc(Oc3ccc(NC(=O)Nc4cc(C(C)(C)C)cc(NS(C)(=O)=O)c4OC)c4ccccc34)n2)cc(C(=O)NCCN2CCN(C)CC2)c1 [Example 85(e), 3-[[4-[[4-[[5-tert-Butyl-3-(methanesulfonamido)-2-methoxyphenyl]-carbamoylamino]-1-naphthyl]oxy]pyrimidin-2-yl]amino]-5-methoxy-N-[2-(4-methyypiperazin-1-yl)ethyl]benzamide] |
| 1.63 | COCCOCCOCCOc1cc(Nc2nccc(Oc3ccc(NC(=O)Nc4cc(C(C)(C)C)cc(C(=O)O)c4OC)c4ccccc34)n2)cc(OC)c1 [Example 21, 5-(tert-Butyl)-2-methoxy-3-(3-(4-((2-((3-methoxy-5-(2-(2-(2-methoxyethoxy)ethoxy)-ethoxy)phenyl)amino)pyrimidin-4-yl)oxy)naphthalen-1-yl)ureido)benzoic acid] |
| 3.56 | C#Cc1cc(Nc2cc(Oc3ccc(NC(=O)Nc4cc(C(C)(C)C)cc(NS(C)(=O)=O)c4OC)c4ccccc34)ccn2)cc(C(=O)NCCN2CCN(C)CC2)c1 [Example 85(c), 3-[[4-[[4-[[5-tert-Butyl-3-(methanesulfonamido)-2-methoxyphenyl]-carbamoylamino]-1-nahthyl]oxy]-2-pyridyl]amino]-5-ethynyl-N-[2-(4-methylpiperazin-1-yl)ethyl]benzamide] |
| 0.135 | COc1cc(Nc2nccc(Oc3ccc(NC(=O)Nc4cc(C(C)(C)C)cc(NS(C)(=O)=O)c4OC)c4ccccc34)n2)cc(OCCOCCC(=O)O)c1 [Example 31, 3-(2-(3-((4-((4-(3-(5-(tert-Butyl)-2-methoxy-3-(methylsulfonamido)phenyl)ureido)-naphthalen-1-yl)oxy)pyrimidin-2-yl)amino)-5-methoxyphenoxy)ethoxy)propanoic acid] |
| 11.3 | COCCOCCOCCOc1cc(Nc2nccc(Oc3ccc(NC(=O)Nc4cc(C(C)(C)C)cc(NS(=O)(=O)N5CCCCC5)c4OC)c4ccccc34)n2)cc(OC)c1 [Example 73, N-(5-(tert-Butyl)-2-methoxy-3-(3-(4-((2-((3-methoxy-5-(2-(2-(2-methoxyethoxy)ethoxy)-ethoxy)phenyl)amino)pyrimidin-4-yl)oxy)naphthalen-1-yl)ureido)phenyl)piperidine-1-sulfonamide] |
| 11.3 | COCCOCCOCCOc1cc(Nc2nccc(Oc3ccc(NC(=O)Nc4cc(N5CCOCC5)ccc4OC)c4ccccc34)n2)cc(OC)c1 [Example 12, 1-(4-((2-((3-Methoxy-5-(2-(2-(2-methoxyethoxy)ethoxy)ethoxy)phenyl)amino)-pyrmidin-4-yl)oxy)naphthalen-1-yl)-3-(2-methoxy-5-morpholinophenyl)urea] |
| 9.94 | COCCOCCOCCOc1cc(Nc2nccc(Oc3ccc(NC(=O)Nc4cc(C(C)(C)C)ccc4OC)c4ccccc34)n2)cc(OC)c1 [Example 8, 1-(5-(tert-Butyl)-2-methoxhenv)-3-(4-((2-((3-methoxy-5-(2-(2-(2-methoxyethoxy)ethoxy)-ethoxy)phenyl)amino)pyrimidin-4-yl)oxy)naphthalen-1-yl)urea] |
| 4.51 | COc1c(NC(=O)Nc2ccc(Oc3ccnc(Nc4ccccc4)c3)c3ccccc23)cc(C(C)(C)C)cc1C(=O)NC1CCN(C)CC1 [84(b), 3-[[4-[(2-Anilino-4-pyridyl)oxy]-1-naphthyl]carbamoylamino]-5-tert-butyl-2-methoxy-N-(1-methyl-4-piperidyl)benzamide] |
| 9.68 | COCCOCCOCCOc1cc(Nc2nccc(Oc3ccc(NC(=O)Nc4cc(C(C)(C)C)cc(NS(=O)(=O)N(C)C)c4OC)c4ccccc34)n2)cc(OC)c1 [Example 74, N-(5-(tert-Butyl)-2-methoxy-3-(3-(4-((2-((3-methoxy-5-(2-(2-(2-methoxyethoxy)ethoxy)-ethoxy)phenyl)amino)pyrimidin-4-yl)oxy)naphthalen-1-yl)ureido)phenyl)dimethylamino-sulfonamide] |
| 0.829 | COCCOCCOCCOc1cc(Nc2nccc(Oc3ccc(NC(=O)Nc4cc(C(C)(C)C)cc5[nH]c(=O)oc45)c4ccccc34)n2)cc(OC)c1 [Example 63, 1-(5-(tert-Butyl)-2-oxo-2,3-dihydrobenzo[d]oxazol-7-yl)-3-(4-((2-((3-methoxy-5-(2-(2-(2-methoxyethoxy)ethoxy)ethoxy)phenyl)amino)pyrimidin-4-yl)oxy)naphthalen-1-yl)urea] |

| Compound | IC50 [µM] |
| --- | --- |
| COCCNC(=O)c1cc(C(C)(C)C)cc(NC(=O)Nc2ccc(Oc3ccnc(Nc4cc(OC)cc(OCCOCCOCCOC)c4)n3)c3ccccc23)c1OC [Example 43, 5-(tert-Butyl)-2-methoxy-3-(3-(4-((2-((3-methoxy-5-(2-(2-(2-methoxyethoxy)ethoxy)-ethoxy)phenyl)amino)pyrimidin-4-yl)oxy)naphthalen-1-yl)ureido)-N-(2-methoxyethyl)-benzamide] | 0.52 |
| COCCOCCOCCOc1cc(Nc2nccc(Oc3ccc(NC(=O)Nc4cc(C(C)(C)C)cc(C(=O)N(C)C)c4OC)c4ccccc34)n2)cc(OC)c1 [Example 19, 5-(tert-yl)-)-2-methoxy-3-(3-(4-((2-((3-methoxy-5-(2-(2-(2-methoxyethoxy)ethoxy)-ethoxy)phenyl)amino)pyrimidin-4-yl)oxy)naphthalen-1-yl)ureido-N,N-dimethylbenzamide] | 4.43 |
| COCCOCCOCCOc1cc(Nc2nccc(Oc3ccc(NC(=O)Nc4cc(C(C)(C)C)cc(C(=O)NCC(=O)O)c4OC)c4ccccc34)n2)cc(OC)c1 [Example 44, 2-(5-(tert-Butyl)-2-methoxy-3-(3-(4-((2-((3-methoxy-5-(2-(2-(2-methoxyethoxy)ethoxy)-ethoxy)phenyl)amino)pyrimidin-4-yl)oxy)naphthalen-1-yl)ureido)benzamido)acetic acid] | 0.08 |
